{"source": "patent US20250303004A1", "about": "“RADIOPHARMACEUTICAL COMPOSITIONS FOR LOW TOXICITY ACTINIUM IN TARGETED RADIONUCLIDE THERAPY” (Curium US LLC, priority 2021, published 2025)", "origin": "cited, not measured here", "key": {"[1]": {"tested_on": "patient with advanced mCRPC", "conditions": "cited from earlier work"}, "[2]": {"tested_on": "kidneys and lesion of a mCRPC patient", "conditions": "8.1 MBq, cited from earlier work"}, "patients": {"tested_on": "patients", "conditions": "cited from earlier work"}, "[3]": {"conditions": "subgroup of 11 patients with prior ^177Lu-PSMA treatment"}, "[4]": {"conditions": "subgroup with prior ^177Lu-PSMA radioligand therapy"}}}
{"compound": "O=C(O)CC[C@H](NC(=O)N[C@@H](CCCCNC(=O)CCCCCCC(=O)NCCCC[C@@H](NC(=O)[C@@H](Cc1ccccc1)NC(=O)[C@@H](Cc1ccc(O)c(I)c1)NC(=O)CC[C@H](C(=O)O)N1CCN(CC(=O)O)CCN(CC(=O)O)CCN(CC(=O)O)CC1)C(=O)O)C(=O)O)C(=O)O.[225Ac+3]", "note": "[^225Ac-PSMA-I&T, (3S,7S,26R,29R,32R,37R)-29-benzyl-32-(4-hydroxy-3-iodobenzyl)-5,13,20,28,31,34-hexaoxo-37-(4,7,10-tris(carboxymethyl)-1,4,7,10-tetraazacyclododecan-1-yl)-4,6,12,21,27,30,33-heptaazaheptatriacontane-1,3,7,26,37-pentacarboxylic acid; Actinium-225 (III)]", "values": [{"measurement": "main TAT-related side effect", "setting": "[1]; already preexisting after 10 cycles of RLT", "value": "grade 2 xerostomia"}, {"measurement": "response", "setting": "[1]; two cycles after failure of ^177Lu-PSMA-617 (10 cycles), FIG. 6", "value": "encouraging response"}, {"measurement": "hematological side effects", "setting": "[1]; two cycles", "value": "No TAT-related grade 3/4 hematological side effects were noted"}, {"measurement": "absorbed dose, left kidney", "setting": "[2]; SPECT/CT at 24 h p. i.", "value": "0.18 Sv(RBE=5)/MBq"}, {"measurement": "absorbed dose, right kidney", "setting": "[2]; SPECT/CT at 24 h p. i.", "value": "0.17 Sv(RBE=5)/MBq"}, {"measurement": "absorbed dose, small lesion in the right hip", "setting": "[2]", "value": "0.26 Sv(RBE=5)/MBq"}, {"measurement": "acute toxicity during hospitalization", "setting": "patients; 14 patients, 34 cycles, median 7.8 MBq", "value": "No acute toxicity was observed"}, {"measurement": "hematologic toxicity", "setting": "patients; 14 patients, FIG. 13", "value": "mild"}, {"measurement": "patients with grade 1 nephrotoxicity", "setting": "patients; 14 patients, FIG. 13", "value": "one"}, {"measurement": "biochemical responses compared with ^225Ac-PSMA-617 TAT", "setting": "patients; first clinical data", "value": "highly comparable biochemical responses"}, {"measurement": "patients with grade 3 anemia after TAT", "setting": "patients; of 14 patients, 2 with grade 2 anemia at baseline", "value": 3, "unit": "patients"}, {"measurement": "patients reporting no xerostomia at all", "setting": "patients; of 14 patients", "value": "One"}, {"measurement": "patients with PSA decline of any amount", "setting": "patients; of 14 patients", "value": 11, "unit": "patients"}, {"measurement": "patients with best PSA response (PSA decline ≥50%)", "setting": "patients; of 14 patients", "value": 7, "unit": "patients"}, {"measurement": "patients with grade 3 leukopenia", "setting": "patients; of 14 patients", "value": 1, "unit": "patients"}, {"measurement": "patients with newly diagnosed grade 1 or 2 xerostomia after TAT", "setting": "patients; of 14 patients", "value": 5, "unit": "patients"}, {"measurement": "patients with no PSA decline at any time", "setting": "patients; of 14 patients", "value": "Three"}, {"measurement": "patients with preexisting xerostomia after ^177Lu-PSMA showing no worsening after TAT", "setting": "patients; of 14 patients", "value": "Eight"}, {"measurement": "patients with PSA decline of at least 50%", "setting": "patients; [3]", "value": 5, "unit": "patients"}, {"measurement": "patients with any PSA decline", "setting": "patients; [3]", "value": 8, "unit": "patients"}, {"measurement": "PSA decline ≥50%", "setting": "patients; [4]", "value": 45, "unit": "%"}, {"measurement": "any PSA decline", "setting": "patients; [4]", "value": 73, "unit": "%"}]}
